# Biological target: 5-hydroxytryptamine 1D receptor (Bos taurus, UniProt Q8MI13)
# Experiment: Binding Assay: 5-HT1D binding assays (agonist radioligand)were performed using bovine caudate membranes according to the methods of Heuring and Peroutka (J. Neurosci 1987, 7: 894-903). 5-HT1B (rat cerebral cortex) binding assays (agonist radioligand) were performed according to the method of Hoyer et. al. (Eur. J. Pharmacol. […], 118: 1-12).
# Assay type: tissue-based
# 5-hydroxytryptamine 1D receptor, sequence (Q8MI13 whole entry): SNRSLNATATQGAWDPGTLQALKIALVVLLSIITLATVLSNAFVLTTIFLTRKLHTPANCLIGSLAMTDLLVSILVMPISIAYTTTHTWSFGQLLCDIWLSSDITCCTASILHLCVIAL
row,Structure (SMILES),IC50 [µM]
1,CN1CC=C(c2c[nH]c3ccc(NC(=S)NC(=O)c4ccccc4)cc23)CC1,0.056
2,CN1CC=C(c2c[nH]c3ccc(CNC(=N)c4cccs4)cc23)CC1,0.22
3,CN1CC=C(c2c[nH]c3ccc(NC(=N)c4cccs4)cc23)CC1,0.051
4,CN1CC=C(c2c[nH]c3ccc(NC(=N)c4ccco4)cc23)CC1,0.05
5,CN1CCC(c2c[nH]c3ccc(NC(=N)c4cccs4)cc23)CC1,0.57
6,CCSC(=N)Nc1ccc2[nH]cc(C3=CCN(C)CC3)c2c1,0.048
7,CN(C)CCc1c[nH]c2ccc(CNC(=N)c3cccs3)cc12,0.29
8,CCN1CCC(c2c[nH]c3ccc(NC(=N)c4cccs4)cc23)CC1,0.68
9,CN1CCC[C@@H]1Cc1c[nH]c2ccc(NC(=N)c3cccs3)cc12,0.13
10,CN1CCC[C@H]1Cc1c[nH]c2ccc(NC(=N)c3cccs3)cc12,1.1
11,CN1CCC(c2c[nH]c3ccc(NC(=N)c4cccs4)cc23)C1 (stereo not drawn),0.35
12,CN1CCC(c2c[nH]c3ccc(/N=C(\N)c4ccco4)cc23)C1 (stereo not drawn),0.56

# Biological target: T1, Nitric oxide synthase 3 (Homo sapiens, UniProt P29474)
# T1 sequence (P29474 whole entry): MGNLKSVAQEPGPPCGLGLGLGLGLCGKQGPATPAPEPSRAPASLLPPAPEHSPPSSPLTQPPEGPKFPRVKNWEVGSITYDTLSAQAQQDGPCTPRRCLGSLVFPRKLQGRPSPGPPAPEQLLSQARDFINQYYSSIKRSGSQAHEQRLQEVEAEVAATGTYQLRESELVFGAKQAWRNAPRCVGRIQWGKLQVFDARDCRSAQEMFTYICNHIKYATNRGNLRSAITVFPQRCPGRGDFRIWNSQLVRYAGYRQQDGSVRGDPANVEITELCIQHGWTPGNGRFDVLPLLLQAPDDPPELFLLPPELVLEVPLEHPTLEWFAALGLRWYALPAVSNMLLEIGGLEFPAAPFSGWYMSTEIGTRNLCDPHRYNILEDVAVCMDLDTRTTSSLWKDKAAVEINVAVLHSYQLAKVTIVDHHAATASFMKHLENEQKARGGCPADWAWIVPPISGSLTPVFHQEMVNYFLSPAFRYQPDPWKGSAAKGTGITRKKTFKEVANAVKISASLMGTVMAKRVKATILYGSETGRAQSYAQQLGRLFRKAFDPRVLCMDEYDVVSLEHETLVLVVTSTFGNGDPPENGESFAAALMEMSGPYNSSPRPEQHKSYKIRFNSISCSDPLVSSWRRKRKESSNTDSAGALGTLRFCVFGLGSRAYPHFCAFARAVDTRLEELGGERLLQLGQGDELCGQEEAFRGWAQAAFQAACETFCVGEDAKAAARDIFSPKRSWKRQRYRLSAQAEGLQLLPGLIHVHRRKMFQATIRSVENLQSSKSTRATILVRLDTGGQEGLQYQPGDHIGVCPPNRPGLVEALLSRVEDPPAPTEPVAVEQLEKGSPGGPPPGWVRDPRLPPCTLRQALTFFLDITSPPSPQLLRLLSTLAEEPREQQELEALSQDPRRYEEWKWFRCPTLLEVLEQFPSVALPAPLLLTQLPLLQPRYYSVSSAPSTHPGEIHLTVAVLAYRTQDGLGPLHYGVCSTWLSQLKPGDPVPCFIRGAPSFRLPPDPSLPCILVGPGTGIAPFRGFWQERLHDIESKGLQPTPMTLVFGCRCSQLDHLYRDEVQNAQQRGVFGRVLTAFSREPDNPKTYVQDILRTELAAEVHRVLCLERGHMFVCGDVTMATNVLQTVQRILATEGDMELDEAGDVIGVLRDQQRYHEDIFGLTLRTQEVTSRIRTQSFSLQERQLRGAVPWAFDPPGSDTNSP
# Experiment: Enzyme Assay: Enzyme assay using recombinant human inducible NOS (iNOS), human endothelial constitutive NOS (eNOS) or human neuronal constitutive NOS (nNOS).
row,IC50 [µM],Structure (SMILES)
1,40.1,CN1CC[C@@H](c2c[nH]c3ccc(/N=C(\N)c4cccs4)cc23)[C@H](F)C1

# — ChEMBL document CHEMBL3638726, “Substituted indole compounds having NOS inhibitory activity” (2013)
